Tests used:
Assay type in all cases: cell-based
human TLR7 = target: T1, human TLR7 (Homo sapiens, UniProt Q9NYK1); experiment: TLR7 inhibition reporter assay (HEK-Blue cells, SEAP reporter, gardiquimod stimulation); conditions: HEK-Blue cells overexpressing human TLR7, SEAP reporter, gardiquimod 7.5 μM
T1 construct: host or cells: HEK-Blue cells
T1 sequence (Q9NYK1 27-1049): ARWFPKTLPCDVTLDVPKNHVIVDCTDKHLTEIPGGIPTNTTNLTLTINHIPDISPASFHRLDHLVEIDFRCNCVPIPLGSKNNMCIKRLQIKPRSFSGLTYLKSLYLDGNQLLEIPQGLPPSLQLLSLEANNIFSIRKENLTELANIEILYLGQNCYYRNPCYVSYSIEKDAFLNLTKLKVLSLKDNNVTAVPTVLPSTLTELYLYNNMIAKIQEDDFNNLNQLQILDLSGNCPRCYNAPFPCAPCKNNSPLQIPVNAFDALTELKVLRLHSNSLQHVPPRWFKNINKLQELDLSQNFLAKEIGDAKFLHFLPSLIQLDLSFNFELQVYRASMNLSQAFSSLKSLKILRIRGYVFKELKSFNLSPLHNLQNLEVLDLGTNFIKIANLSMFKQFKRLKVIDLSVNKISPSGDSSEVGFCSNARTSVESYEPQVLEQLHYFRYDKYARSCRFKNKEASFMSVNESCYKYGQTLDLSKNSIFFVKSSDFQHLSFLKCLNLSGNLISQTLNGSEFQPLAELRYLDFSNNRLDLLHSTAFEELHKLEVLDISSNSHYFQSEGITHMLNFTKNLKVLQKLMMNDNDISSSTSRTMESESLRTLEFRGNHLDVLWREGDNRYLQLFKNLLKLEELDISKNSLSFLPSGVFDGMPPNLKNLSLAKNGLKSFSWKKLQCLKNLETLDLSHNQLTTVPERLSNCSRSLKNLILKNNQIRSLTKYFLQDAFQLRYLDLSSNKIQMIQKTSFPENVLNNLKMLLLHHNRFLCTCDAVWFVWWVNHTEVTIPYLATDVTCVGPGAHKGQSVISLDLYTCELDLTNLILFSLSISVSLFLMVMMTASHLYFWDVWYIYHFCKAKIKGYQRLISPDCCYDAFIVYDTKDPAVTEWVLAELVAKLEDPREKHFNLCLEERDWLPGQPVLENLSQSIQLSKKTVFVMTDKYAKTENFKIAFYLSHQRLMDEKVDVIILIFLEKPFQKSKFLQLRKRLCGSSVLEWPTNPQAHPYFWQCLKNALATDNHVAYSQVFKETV
Outline: (§1)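 Ligand levels: TLR7 gardiquimod 7.5 μM, TLR8 R848 15.9 μM, TLR9 ODN2006 5 nM, added after 30 min room-temperature compound pre-incubation at 0.05 nM-50 μM. Reporter SEAP read with HEK-Blue Detection reagent after 22 h, 37° C. Inhibition expressed as % reduction relative to agonist-plus-DMSO and known-inhibitor controls.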

human TLR8 = target: T2, human TLR8 (Homo sapiens, UniProt Q9NR97); experiment: TLR8 inhibition reporter assay (HEK-Blue cells, SEAP reporter, R848 stimulation); conditions: HEK-Blue cells overexpressing human TLR8, SEAP reporter, R848 15.9 μM
T2 construct: host or cells: HEK-Blue cells
T2 sequence (Q9NR97 27-1041): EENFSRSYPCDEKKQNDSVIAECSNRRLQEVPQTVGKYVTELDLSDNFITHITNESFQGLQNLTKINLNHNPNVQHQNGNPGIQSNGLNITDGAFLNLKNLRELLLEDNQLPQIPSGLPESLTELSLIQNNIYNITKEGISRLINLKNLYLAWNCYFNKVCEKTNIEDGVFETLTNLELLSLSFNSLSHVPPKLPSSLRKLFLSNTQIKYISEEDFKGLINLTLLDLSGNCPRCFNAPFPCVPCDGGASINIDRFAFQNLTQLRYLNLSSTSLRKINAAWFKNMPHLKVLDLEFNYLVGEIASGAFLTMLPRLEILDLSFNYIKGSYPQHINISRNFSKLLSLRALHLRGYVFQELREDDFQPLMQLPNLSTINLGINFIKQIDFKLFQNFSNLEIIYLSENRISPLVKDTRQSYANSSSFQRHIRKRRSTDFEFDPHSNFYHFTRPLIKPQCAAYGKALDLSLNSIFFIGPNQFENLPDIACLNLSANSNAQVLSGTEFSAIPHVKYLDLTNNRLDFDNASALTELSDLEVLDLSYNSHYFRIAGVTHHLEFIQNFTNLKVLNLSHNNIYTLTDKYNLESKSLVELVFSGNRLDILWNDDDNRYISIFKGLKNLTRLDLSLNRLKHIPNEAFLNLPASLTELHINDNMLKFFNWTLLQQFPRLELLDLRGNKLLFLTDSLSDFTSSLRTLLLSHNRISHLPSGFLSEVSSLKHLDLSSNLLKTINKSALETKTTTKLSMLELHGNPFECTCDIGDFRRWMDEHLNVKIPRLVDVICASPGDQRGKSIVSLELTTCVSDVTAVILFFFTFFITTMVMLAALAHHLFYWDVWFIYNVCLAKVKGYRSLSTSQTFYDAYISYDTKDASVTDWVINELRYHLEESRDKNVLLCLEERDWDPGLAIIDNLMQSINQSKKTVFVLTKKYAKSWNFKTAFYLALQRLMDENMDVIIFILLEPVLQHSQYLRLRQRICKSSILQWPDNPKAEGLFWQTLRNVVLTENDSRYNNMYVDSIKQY
Outline: as §1

human TLR9 = target: T3, human TLR9 (Homo sapiens, UniProt Q9NR96); experiment: TLR9 inhibition reporter assay (HEK-Blue cells, SEAP reporter, ODN2006 stimulation); conditions: HEK-Blue cells overexpressing human TLR9, SEAP reporter, ODN2006 5 nM
T3 construct: host or cells: HEK-Blue cells
T3 sequence (Q9NR96 26-1032): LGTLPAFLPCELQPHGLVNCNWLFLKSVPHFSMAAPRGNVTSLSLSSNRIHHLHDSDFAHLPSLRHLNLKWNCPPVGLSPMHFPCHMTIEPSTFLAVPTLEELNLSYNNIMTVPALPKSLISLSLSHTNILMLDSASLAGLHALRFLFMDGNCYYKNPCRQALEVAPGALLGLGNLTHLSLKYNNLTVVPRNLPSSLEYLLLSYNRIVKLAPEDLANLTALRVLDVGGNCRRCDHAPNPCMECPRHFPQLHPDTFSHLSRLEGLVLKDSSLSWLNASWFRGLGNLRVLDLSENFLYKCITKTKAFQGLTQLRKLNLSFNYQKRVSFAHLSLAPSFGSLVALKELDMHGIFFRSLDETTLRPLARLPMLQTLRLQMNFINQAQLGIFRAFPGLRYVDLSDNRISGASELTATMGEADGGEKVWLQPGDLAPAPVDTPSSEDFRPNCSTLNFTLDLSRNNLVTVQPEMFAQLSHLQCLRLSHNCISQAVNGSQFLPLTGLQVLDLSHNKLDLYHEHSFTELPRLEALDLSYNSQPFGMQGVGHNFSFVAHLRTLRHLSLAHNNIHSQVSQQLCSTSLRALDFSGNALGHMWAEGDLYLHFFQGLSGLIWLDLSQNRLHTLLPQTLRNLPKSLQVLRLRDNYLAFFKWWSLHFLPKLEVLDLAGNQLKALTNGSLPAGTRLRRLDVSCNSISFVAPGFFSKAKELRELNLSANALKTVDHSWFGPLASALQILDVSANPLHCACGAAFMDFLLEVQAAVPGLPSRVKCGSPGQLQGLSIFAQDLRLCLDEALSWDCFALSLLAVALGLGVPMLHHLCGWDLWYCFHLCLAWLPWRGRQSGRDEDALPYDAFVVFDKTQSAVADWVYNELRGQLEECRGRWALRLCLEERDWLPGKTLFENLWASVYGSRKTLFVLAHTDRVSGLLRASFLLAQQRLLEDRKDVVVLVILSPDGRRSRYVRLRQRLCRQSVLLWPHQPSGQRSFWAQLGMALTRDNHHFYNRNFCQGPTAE
Outline: as §1

IC50 (human TLR7) [nM]	IC50 (human TLR8) [nM]	IC50 (human TLR9) [nM]	SMILES
1	6.3	2240	COc1cc(-c2[nH]c3ccc(CCC4CN(C(=O)CN(C)C)C4)cc3c2C(C)C)cn2ncnc12 [Example 439]
2	3.8	2570	COc1cc(-c2[nH]c3ccc(CCC4CN(CC(C)(C)O)C4)cc3c2C(C)C)cn2ncnc12 [Example 441]
26	4.6	7600	CC(C)c1c(-c2ccnc3[nH]ncc23)[nH]c2ccc(CN3CCN(C)CC3)cc12 [Example 442]
3060	9240	4960	CCc1c(-c2ccnc(C)c2)[nH]c2ccc(CNC(=O)CCC3CCNCC3)cc12 [Example 444]
2680	3240	1620	CCc1c(-c2ccnc(C)c2)[nH]c2ccc(CNC(=O)C3CCNC3)cc12 (stereo not drawn) [Example 445]
1520	134	1250	CCc1c(-c2ccnc(C)c2)[nH]c2ccc(CNC(=O)N3CCN(C)CC3)cc12 [Example 448]
1600	228	480	CCc1c(-c2ccnc(C)c2)[nH]c2ccc(CNC(=O)OCC3CCNCC3)cc12 [Example 449]
8	11	2200	COc1ccc(-c2[nH]c3ccc(C4CCC(N)CC4)cc3c2C(C)C)cc1OC (stereo not drawn) [Example 450]
139	238	19500	COc1ccc(-c2[nH]c3ccc(C4CCC(O)CC4)cc3c2C(C)C)cc1OC (stereo not drawn) [Example 451]
77	66	191	Cc1cc(-c2[nH]c3ccc([C@H]4C[C@H]4C(=O)NC4CCC5CNCC54)cc3c2C(C)C)ccn1 (stereo partly drawn) [Example 453]
96	5.5	363	Cc1cc(-c2[nH]c3ccc([C@H]4C[C@H]4C(=O)N4CC5CC4CN5)cc3c2C(C)C)ccn1 (stereo partly drawn) [Example 454]
189	50	646	Cc1cc(-c2[nH]c3ccc([C@H]4C[C@H]4C(=O)NC4CCC5CNCC54)cc3c2C(C)C)ccn1 (stereo partly drawn) [Example 457]
57	21	2270	Cc1cc(-c2[nH]c3ccc([C@@H]4C[C@H]4C(=O)NC4CCN(C(C)C)CC4)cc3c2C(C)C)ccn1 [Example 458]
25	27	116	Cc1cc(-c2[nH]c3ccc([C@@H]4C[C@H]4C(=O)N(C)C4CCNCC4)cc3c2C(C)C)ccn1 [Example 462]
28	3.4	271	Cc1cc(-c2[nH]c3ccc([C@@H]4C[C@H]4CN4CCCC4)cc3c2C(C)C)ccn1 [Example 464]

Further lines, the compound ahead of its results:

SMILES	IC50 (human TLR7) [nM]	IC50 (human TLR8) [nM]	IC50 (human TLR9) [nM]
COc1cc(-c2[nH]c3ccc(CCC4CN(C)C4)cc3c2C(C)C)cn2ncnc12 [Example 438]	5	37	2100
COc1cc(-c2[nH]c3ccc(CCC4CNC4)cc3c2C(C)C)cn2ncnc12 [Example 440]	4	16	1480
CC(C)c1c(-c2ccnc3[nH]ncc23)[nH]c2ccc(CN3CCCCC3)cc12 [Example 443]	279	158	2850
CCc1c(-c2ccnc(C)c2)[nH]c2ccc(CNC(=O)C3CCN(C)CC3)cc12 [Example 446]	541	70	406
CCc1c(-c2ccnc(C)c2)[nH]c2ccc(CNC(=O)C3CC4(CCNCC4)C3)cc12 [Example 447]	4010	14	1140
COc1ccc(-c2[nH]c3ccc(C4CCC(O)CC4)cc3c2C(C)C)cc1OC (stereo not drawn) [Example 452]	242	737	46500
Cc1cc(-c2[nH]c3ccc([C@H]4C[C@H]4C(=O)N4CC5CNCC5C4)cc3c2C(C)C)ccn1 (stereo partly drawn) [Example 455]	188	16	326
Cc1cc(-c2[nH]c3ccc([C@H]4C[C@H]4C(=O)NC4CCNCC4)cc3c2C(C)C)ccn1 [Example 456]	124	56	224
Cc1cc(-c2[nH]c3ccc([C@@H]4C[C@H]4C(=O)N(C)C4CC5CCN4CC5)cc3c2C(C)C)ccn1 (stereo partly drawn) [Example 459]	19	10	174
Cc1cc(-c2[nH]c3ccc([C@@H]4C[C@H]4C(=O)NC4CC5CCN4CC5)cc3c2C(C)C)ccn1 (stereo partly drawn) [Example 460]	51	31	179
Cc1cc(-c2[nH]c3ccc([C@@H]4C[C@H]4C(=O)NC4CC5CCN4CC5)cc3c2C(C)C)ccn1 (stereo partly drawn) [Example 461]	86	30	467
Cc1cc(-c2[nH]c3ccc([C@@H]4C[C@H]4C(=O)N(C)C4CC5CCN4CC5)cc3c2C(C)C)ccn1 (stereo partly drawn) [Example 463]	35	15	406
